According to ChEMBL document CHEMBL1201862, “PubChem BioAssay data set” (2004):
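Where inhibition never reached the appropriate level, the endpoint shown equals the highest concentration tested. Otherwise, values were interpolated linearly from a five-concentration, 48-hour dose response in 96-well plates. GI50 marks 50% less growth.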 The source made the active and inactive calls. Rule as the data show it: active = GI50 up to about 1.1 µM and inactive = higher.

Key:
Test in all cases: DTP human tumour cell line panel, 48 h
IGROV-1 = tested on: IGROV-1
MDA-MB-231 = tested on: MDA-MB-231
BT-549 = tested on: BT-549
A549 = tested on: A549
EKVX = tested on: EKVX
SF-539 = tested on: SF-539
SR = tested on: SR
A498 = tested on: A498
OVCAR-3 = tested on: OVCAR-3
OVCAR-8 = tested on: OVCAR-8
UACC-62 = tested on: UACC-62
HCT-15 = tested on: HCT-15
NCI-H23 = tested on: NCI-H23
SNB-75 = tested on: SNB-75
NCI-H460 = tested on: NCI-H460
K562 = tested on: K562
SF-268 = tested on: SF-268
SW-620 = tested on: SW-620
MOLT-4 = tested on: MOLT-4
SF-295 = tested on: SF-295

Row | Structure (SMILES) | GI50 (IGROV-1) | GI50 (MDA-MB-231) | GI50 (BT-549) | GI50 (A549) | GI50 (EKVX) | GI50 (SF-539) | GI50 (SR) | GI50 (A498) | GI50 (OVCAR-3) | GI50 (OVCAR-8) | GI50 (UACC-62) | GI50 (HCT-15) [µM] | GI50 (NCI-H23) | GI50 (SNB-75) | GI50 (NCI-H460) | GI50 (K562) | GI50 (SF-268) | GI50 (SW-620) | GI50 (MOLT-4) | GI50 (SF-295)
1 | COc1cc(Cn2c(=S)ss/c2=N\C(=S)N(C)C)cc(OC)c1OC | 17.2 µM (inactive) | 15.1 µM (inactive) | > 20.7 µM (inactive) | 13.2 µM (inactive) | > 81.5 µM (inactive) | 6.35 µM (inactive) | 3.42 µM (inactive) | 22.6 µM (inactive) | 1.89 µM (inactive) | 52.6 µM (inactive) | 2.85 µM (inactive) | 3.57 | 14.7 µM (inactive) | 3.77 µM (inactive) | 4.16 µM (inactive) | 2.59 µM (inactive) | 8.93 µM (inactive) | 2.81 µM (inactive) | 8.91 µM (inactive) | 3.44 µM (inactive)
2 | CC(N/N=C(\S)N1CCCCCC1)c1cccnn1 (stereo not given) | 0.361 µM (active) | 0.553 µM (active) | 0.392 µM (active) | 0.301 µM (active) | 0.27 µM (active) | 0.194 µM (active) | 0.132 µM (active) | 0.764 µM (active) | 0.192 µM (active) | 0.239 µM (active) | 0.264 µM (active) | 0.386 | 0.254 µM (active) | 1.75 µM (inactive) | 0.274 µM (active) | 0.2 µM (active) | 0.337 µM (active) | 0.147 µM (active) | 0.111 µM (active) | 0.403 µM (active)
3 | O=[N+]([O-])C(=C1NCCN1)/C(Cl)=C(\Cl)Br | 52.2 µM (inactive) | > 60.3 µM (inactive) | 36.1 µM (inactive) | > 100 µM (inactive) | > 43.4 µM (inactive) | > 63 µM (inactive) | 21.5 µM (inactive) | > 44.9 µM (inactive) | 18 µM (inactive) | 40.3 µM (inactive) | 43.1 µM (inactive) | 4.98 | > 49.8 µM (inactive) | 27.2 µM (inactive) | 51.6 µM (inactive) | 5.33 µM (inactive) | 35.2 µM (inactive) | 13.5 µM (inactive) | 22.3 µM (inactive) | > 100 µM (inactive)
4 | Nc1nc(Cl)cc(NCC2(CO)CCC(O)C2)n1 (stereo not given) | > 100 µM (inactive) | > 100 µM (inactive) | > 100 µM (inactive) | > 100 µM (inactive) | > 100 µM (inactive) | > 100 µM (inactive) | > 100 µM (inactive) | > 100 µM (inactive) | > 100 µM (inactive) | > 100 µM (inactive) | > 100 µM (inactive) | > 100 | > 100 µM (inactive) | > 100 µM (inactive) | > 100 µM (inactive) | > 100 µM (inactive) | > 100 µM (inactive) | > 100 µM (inactive) | > 100 µM (inactive) | > 100 µM (inactive)
5 | Cc1cc(Cl)nc2ccc(Cc3ccc4nc(Cl)cc(C)c4c3)cc12 | 31.7 µM (inactive) | 17.1 µM (inactive) | 42.2 µM (inactive) | 47.5 µM (inactive) | 44.3 µM (inactive) | 12.6 µM (inactive) | 85.3 µM (inactive) | 21 µM (inactive) | 39.3 µM (inactive) | 28.6 µM (inactive) | 51.6 µM (inactive) | 49.3 | 44.6 µM (inactive) | 3.3 µM (inactive) | 41.5 µM (inactive) | > 100 µM (inactive) | 43.2 µM (inactive) | > 100 µM (inactive) | > 100 µM (inactive) | 22 µM (inactive)
6 | C/C(=C/CC[C@](C)(OC1OC(CO)C(O)C(O)C1OC1OC(C)C(O)C(O)C1O)[C@H]1CC[C@]2(C)[C@@H]1CC[C@@H]1[C@@]3(C)CC[C@H](O)C(C)(C)[C@@H]3C[C@H](O)[C@]12C)CO (stereo not given in full) | > 100 µM (inactive) | > 100 µM (inactive) | > 100 µM (inactive) | > 100 µM (inactive) | > 100 µM (inactive) | > 100 µM (inactive) | > 100 µM (inactive) | > 100 µM (inactive) | > 100 µM (inactive) | > 100 µM (inactive) | > 100 µM (inactive) | > 10 | > 100 µM (inactive) | > 100 µM (inactive) | > 100 µM (inactive) | > 100 µM (inactive) | > 100 µM (inactive) | > 100 µM (inactive) | > 100 µM (inactive) | > 100 µM (inactive)
7 | NC(=O)NC(=O)c1cccc(NC(=O)CI)c1 | 0.0483 µM (active) | 0.0622 µM (active) | 0.0473 µM (active) | 0.805 µM (active) | 0.863 µM (active) | < 0.0229 µM (active) | < 0.01 µM (active) | 0.231 µM (active) | < 0.01 µM (active) | < 0.0123 µM (active) | < 0.0152 µM (active) | < 0.0159 | < 0.0212 µM (active) | 0.235 µM (active) | 0.0485 µM (active) | < 0.01 µM (active) | 0.0254 µM (active) | < 0.01 µM (active) | < 0.01 µM (active) | 0.274 µM (active)
